Experimental data taken from ChEMBL document CHEMBL4609983, “Pan-specific and partially selective dye-labeled peptidic inhibitors of the polycomb paralog proteins” (Bioorg Med Chem, 2020).
Non-standard residues stand in square brackets, D forms with d. Residues, ends and D or L forms follow the SMILES beside them. *: point of attachment. X1 = O=C(O)c1cc(NC(=S)*)ccc1-c1c2ccc(=O)cc-2oc2cc(O)ccc12; Lys(Me3) = C[N+](C)(C)CCCC[C@H](N)C(=O)O; Benzoyl(4-Br) = O=C(c1ccc(Br)cc1)*; Gly(cPent) = N[C@H](C(=O)O)C1CCCC1; Abu = CC[C@H](N)C(=O)O; βAla = NCCC(=O)O

Columns and labels:
[1] = molecular target: T1, Chromobox protein homolog 6 (Homo sapiens, UniProt O95503); experiment: Inhibition of CBX6 (unknown origin) assessed as […] by competitive FP assay
T1 sequence (O95503 whole entry): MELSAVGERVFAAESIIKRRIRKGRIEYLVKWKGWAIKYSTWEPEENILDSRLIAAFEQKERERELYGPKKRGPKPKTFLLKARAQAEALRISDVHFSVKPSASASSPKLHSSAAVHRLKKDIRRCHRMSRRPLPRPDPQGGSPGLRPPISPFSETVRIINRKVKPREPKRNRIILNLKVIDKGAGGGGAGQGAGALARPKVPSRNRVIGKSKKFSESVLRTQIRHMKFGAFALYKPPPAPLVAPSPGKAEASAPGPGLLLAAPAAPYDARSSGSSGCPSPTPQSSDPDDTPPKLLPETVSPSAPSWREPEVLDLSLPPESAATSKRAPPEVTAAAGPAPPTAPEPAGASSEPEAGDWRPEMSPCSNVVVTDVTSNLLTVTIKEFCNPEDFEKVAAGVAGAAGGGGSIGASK

[2] = molecular target: T2, Chromobox protein homolog 8 (Homo sapiens, UniProt Q9HC52); experiment: Inhibition of CBX8 (unknown origin) assessed as […] by competitive FP assay
T2 sequence (Q9HC52 whole entry): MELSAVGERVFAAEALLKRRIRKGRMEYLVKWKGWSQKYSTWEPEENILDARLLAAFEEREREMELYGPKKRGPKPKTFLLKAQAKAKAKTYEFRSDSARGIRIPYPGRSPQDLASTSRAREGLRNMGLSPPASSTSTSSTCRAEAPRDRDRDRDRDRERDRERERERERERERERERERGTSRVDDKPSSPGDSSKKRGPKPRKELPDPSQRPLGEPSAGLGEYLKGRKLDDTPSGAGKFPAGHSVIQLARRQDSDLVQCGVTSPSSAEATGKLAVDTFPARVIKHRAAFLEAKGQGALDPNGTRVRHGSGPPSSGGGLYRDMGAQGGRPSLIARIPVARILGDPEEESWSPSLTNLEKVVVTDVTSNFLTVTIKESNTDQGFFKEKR

[3] = molecular target: T3, Chromobox protein homolog 7 (Homo sapiens, UniProt O95931); experiment: Inhibition of CBX7 (unknown origin) assessed as […] by competitive FP assay
T3 sequence (O95931 whole entry): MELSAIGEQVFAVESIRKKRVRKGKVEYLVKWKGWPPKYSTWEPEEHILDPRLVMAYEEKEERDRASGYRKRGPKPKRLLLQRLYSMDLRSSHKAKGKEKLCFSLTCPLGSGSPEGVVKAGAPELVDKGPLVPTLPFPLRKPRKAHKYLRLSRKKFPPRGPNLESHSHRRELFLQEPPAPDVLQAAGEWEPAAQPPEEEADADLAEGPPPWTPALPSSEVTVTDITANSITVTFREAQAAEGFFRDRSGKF

TOV21G = experiment: Decrease in cell viability in human TOV21G cells by MTT assay; format: cell-based
[4] = molecular target: T3, Chromobox protein homolog 7; experiment: Binding affinity to CBX7 (unknown origin) assessed as dissociation constant by fluorescence polarization analysis
[5] = molecular target: T2, Chromobox protein homolog 8; experiment: Binding affinity to CBX8 (unknown origin) assessed as dissociation constant by fluorescence polarization analysis
[6] = molecular target: Chromobox protein homolog 1 (Homo sapiens, UniProt P83916); experiment: Binding affinity to CBX1 (unknown origin) assessed as dissociation constant by fluorescence polarization analysis
Chromobox protein homolog 1, sequence (P83916 whole entry): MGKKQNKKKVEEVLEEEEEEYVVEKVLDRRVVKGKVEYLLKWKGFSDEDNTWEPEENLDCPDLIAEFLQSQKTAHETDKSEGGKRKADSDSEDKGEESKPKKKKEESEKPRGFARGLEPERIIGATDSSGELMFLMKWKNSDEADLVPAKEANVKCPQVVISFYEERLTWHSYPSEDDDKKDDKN

[7] = molecular target: T1, Chromobox protein homolog 6; experiment: Binding affinity to CBX6 (unknown origin) assessed as dissociation constant by fluorescence polarization analysis
[8] = molecular target: T4, E3 SUMO-protein ligase CBX4 (Homo sapiens, UniProt O00257); experiment: Binding affinity to CBX4 (unknown origin) assessed as dissociation constant by fluorescence polarization analysis
T4 sequence (O00257 whole entry): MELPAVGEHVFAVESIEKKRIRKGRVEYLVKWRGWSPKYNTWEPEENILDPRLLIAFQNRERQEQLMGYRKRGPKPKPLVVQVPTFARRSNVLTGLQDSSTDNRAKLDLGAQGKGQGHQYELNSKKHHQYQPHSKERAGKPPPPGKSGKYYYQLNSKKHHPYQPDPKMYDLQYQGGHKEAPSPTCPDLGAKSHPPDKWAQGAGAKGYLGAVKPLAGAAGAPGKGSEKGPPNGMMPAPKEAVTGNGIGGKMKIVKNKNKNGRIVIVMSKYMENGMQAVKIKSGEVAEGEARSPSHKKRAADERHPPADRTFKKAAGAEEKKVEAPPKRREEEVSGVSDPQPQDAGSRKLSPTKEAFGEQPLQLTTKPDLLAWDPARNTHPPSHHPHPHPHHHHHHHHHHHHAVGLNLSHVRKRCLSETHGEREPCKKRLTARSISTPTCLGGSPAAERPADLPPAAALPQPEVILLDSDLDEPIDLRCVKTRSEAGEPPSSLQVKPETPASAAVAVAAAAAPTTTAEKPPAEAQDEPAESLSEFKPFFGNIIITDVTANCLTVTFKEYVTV

[9] = molecular target: T5, Chromobox protein homolog 2 (Homo sapiens, UniProt Q14781); experiment: Binding affinity to CBX2 (unknown origin) assessed as dissociation constant by fluorescence polarization analysis
T5 sequence (Q14781 whole entry): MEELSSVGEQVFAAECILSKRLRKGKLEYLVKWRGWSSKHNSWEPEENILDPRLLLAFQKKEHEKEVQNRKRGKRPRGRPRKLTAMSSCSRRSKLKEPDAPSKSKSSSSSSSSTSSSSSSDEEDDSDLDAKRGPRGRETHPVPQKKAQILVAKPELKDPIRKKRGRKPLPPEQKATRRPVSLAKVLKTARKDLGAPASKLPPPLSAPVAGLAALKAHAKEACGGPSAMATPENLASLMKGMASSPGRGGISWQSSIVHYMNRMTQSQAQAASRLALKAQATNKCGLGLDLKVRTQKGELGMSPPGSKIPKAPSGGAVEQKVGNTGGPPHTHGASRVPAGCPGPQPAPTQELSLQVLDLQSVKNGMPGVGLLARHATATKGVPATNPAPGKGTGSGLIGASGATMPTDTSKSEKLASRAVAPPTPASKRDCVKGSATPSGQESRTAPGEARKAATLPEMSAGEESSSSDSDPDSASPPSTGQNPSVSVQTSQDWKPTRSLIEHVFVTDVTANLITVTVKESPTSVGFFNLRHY

Homo sapiens [10] = species on record: Homo sapiens; experiment: Selectivity ratio of Kd for CBX6 (unknown origin) to Kd for CBX8 (unknown origin)
Homo sapiens [11] = species on record: Homo sapiens; experiment: Selectivity ratio of Kd for CBX4 (unknown origin) to Kd for CBX8 (unknown origin)
Homo sapiens [12] = species on record: Homo sapiens; experiment: Selectivity ratio of Kd for CBX2 (unknown origin) to Kd for CBX8 (unknown origin)
Homo sapiens [13] = species on record: Homo sapiens; experiment: Selectivity ratio of Kd for CBX7 (unknown origin) to Kd for CBX8 (unknown origin)
Homo sapiens [14] = species on record: Homo sapiens; experiment: Selectivity ratio of Kd for CBX1 (unknown origin) to Kd for CBX8 (unknown origin)

## CC(C)C[C@H](NC(=O)[C@H](CO)NC(=O)[C@H](CCCC[N+](C)(C)C)NC(=O)[C@H](Cc1ccc(O)cc1)NC(=O)[C@H](C)NC(=O)[C@H](Cc1ccccc1)NC(=O)c1ccc(Br)cc1)C(N)=O ({Benzoyl(4-Br)}-FAY[Lys(Me3)]SL-NH2)
[1]
  IC50: 13000 nM
[2]
  IC50: 19000 nM
[3]
  IC50: 1100 nM
TOV21G
  Activity: Non-Toxic

## CC(C)C[C@H](NC(=O)[C@H](CO)NC(=O)[C@H](CCCC[N+](C)(C)C)NC(=O)[C@H](Cc1ccc(O)cc1)NC(=O)[C@H](C)NC(=O)[C@H](Cc1ccccc1)NC(=O)c1ccc(Br)cc1)C(=O)N[C@@H](CCCCNC(=S)Nc1ccc(-c2c3ccc(=O)cc-3oc3cc(O)ccc23)c(C(=O)O)c1)C(N)=O ({Benzoyl(4-Br)}-FAY[Lys(Me3)]SLK(X1)-NH2)
[4]
  Kd: 11 nM
[5]
  Kd: 890 nM
[6]
  Kd: 1750 nM
[7]
  Kd: 78 nM

## CC[C@H](NC(=O)[C@H](Cc1ccccc1)NC(=O)c1ccc(Br)cc1)C(=O)N[C@@H](Cc1ccccc1)C(=O)N[C@@H](CCCC[N+](C)(C)C)C(=O)N[C@@H](CO)C(=O)N[C@@H](CCC(=O)O)C(=O)N[C@@H](CCCCNC(=S)Nc1ccc(-c2c3ccc(=O)cc-3oc3cc(O)ccc23)c(C(=O)O)c1)C(N)=O ({Benzoyl(4-Br)}-F[Abu]F[Lys(Me3)]SEK(X1)-NH2)
[8]
  Kd: 700 nM
[4]
  Kd: 300 nM
[5]
  Kd: 960 nM
[6]
  Kd: 180000 nM
[9]
  Kd: 1500 nM
[7]
  Kd: 800 nM

## CC[C@H](NC(=O)[C@H](Cc1ccccc1)NC(=O)c1ccc(Br)cc1)C(=O)N[C@H](C(=O)N[C@@H](CCCC[N+](C)(C)C)C(=O)N[C@@H](CO)C(=O)N[C@@H](CCC(=O)O)C(=O)N[C@@H](CCCCNC(=S)Nc1ccc(-c2c3ccc(=O)cc-3oc3cc(O)ccc23)c(C(=O)O)c1)C(N)=O)C1CCCC1 ({Benzoyl(4-Br)}-F[Abu][Gly(cPent)][Lys(Me3)]SEK(X1)-NH2)
[8]
  Kd: 600 nM
Homo sapiens [10]
  Selectivity ratio: 3
Homo sapiens [11]
  Selectivity ratio: 5
Homo sapiens [12]
  Selectivity ratio: 3
[4]
  Kd: 160 nM
Homo sapiens [13]
  Selectivity ratio: 2
Homo sapiens [14]
  Selectivity ratio: 26
[5]
  Kd: 120 nM
[6]
  Kd: 3200 nM
[9]
  Kd: 390 nM
[7]
  Kd: 350 nM

## CC(C)C[C@H](NC(=O)[C@H](C)NC(=O)[C@H](Cc1ccccc1)NC(=O)CCNC(=S)Nc1ccc(-c2c3ccc(=O)cc-3oc3cc(O)ccc23)c(C(=O)O)c1)C(=O)N[C@@H](CCCC[N+](C)(C)C)C(=O)N[C@@H](CO)C(N)=O ({X1-βAla}-FAL[Lys(Me3)]S-NH2)
[8]
  Kd: 800 nM
[4]
  Kd: 700 nM
[5]
  Kd: 4500 nM
[6]
  Kd: 2500 nM
[9]
  Kd: 1100 nM
[7]
  Kd: 900 nM
